Data published in the supplement of paper PMC10307832.

Columns and labels:
Assay in all cases: relative viability (nuclei count vs DMSO), 5 days (fraction); higher = more cells survive
Daporinad + Phenformin = compound: O=C(/C=C/c1cccnc1)NCCCCC1CCN(C(=O)c2ccccc2)CC1 [Daporinad] + N=C(N)NC(=N)NCCc1ccccc1 [Phenformin] (partner 250 µM)
In short: (§1)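 Lung cancer cell lines in 1536-well plates got either a single drug or a fixed anchor-drug dose together with five library-drug doses (not always all listed) in √10 steps, by pin tool, on the day after seeding. Nuclei were counted after 5 days, and relative viability is the treated-to-vehicle ratio of nuclei counts. Values are medians of duplicate plates.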

R406 + Dasatinib = compound: COc1cc(Nc2ncc(F)c(Nc3ccc4c(n3)NC(=O)C(C)(C)O4)n2)cc(OC)c1OC [R406] + Cc1nc(Nc2ncc(C(=O)Nc3c(C)cccc3Cl)s2)cc(N2CCN(CCO)CC2)n1 [Dasatinib] (partner 0.075 µM)
In short: as §1

Daporinad + Foretinib = compound: O=C(/C=C/c1cccnc1)NCCCCC1CCN(C(=O)c2ccccc2)CC1 [Daporinad] + COc1cc2c(Oc3ccc(NC(=O)C4(C(=O)Nc5ccc(F)cc5)CC4)cc3F)ccnc2cc1OCCCN1CCOCC1 [Foretinib] (partner 0.25 µM)
In short: as §1

R406 + Alpelisib = compound: COc1cc(Nc2ncc(F)c(Nc3ccc4c(n3)NC(=O)C(C)(C)O4)n2)cc(OC)c1OC [R406] + Cc1nc(NC(=O)N2CCC[C@H]2C(N)=O)sc1-c1ccnc(C(C)(C)C(F)(F)F)c1 [Alpelisib] (partner 2 µM)
In short: as §1

Cell Line | relative viability (Daporinad + Phenformin; first compound 0.0005 µM) | relative viability (Daporinad + Phenformin; first compound 0.001581 µM) | relative viability (Daporinad + Phenformin; first compound 0.005 µM) | relative viability (Daporinad + Phenformin; first compound 0.01581 µM) | relative viability (R406 + Dasatinib; first compound 0.08 µM) | relative viability (R406 + Dasatinib; first compound 0.253 µM) | relative viability (R406 + Dasatinib; first compound 0.8 µM) | relative viability (R406 + Dasatinib; first compound 2.53 µM) | relative viability (R406 + Dasatinib; first compound 8 µM) | relative viability (Daporinad + Foretinib; first compound 0.0005 µM) | relative viability (Daporinad + Foretinib; first compound 0.001581 µM) | relative viability (Daporinad + Foretinib; first compound 0.005 µM) | relative viability (Daporinad + Foretinib; first compound 0.01581 µM) | relative viability (R406 + Alpelisib; first compound 0.08 µM) | relative viability (R406 + Alpelisib; first compound 0.253 µM) | relative viability (R406 + Alpelisib; first compound 0.8 µM) | relative viability (R406 + Alpelisib; first compound 2.53 µM) | relative viability (R406 + Alpelisib; first compound 8 µM)
SK-MES-1 | 0.657 | 0.695 | 0.738 | 0.545 | 0.397 | 0.371 | 0.363 | 0.137 | 0.136 | 0.837 | 1.19 | 0.916 | 1.21 | 0.749 | 0.964 | 0.957 | 0.414 | 0.406
SW 1573 | 0.352 | 0.383 | 0.232 | 0.18 | 0.492 | 0.539 | 0.602 | 0.366 | 0.149 | 0.962 | 0.701 | 1.06 | 0.744 | 0.753 | 1.02 | 0.739 | 0.673 | 0.494
